Test results reported in ChEMBL document CHEMBL1158640, “Synthesis, analgesic and anti-inflammatory activities of some novel pyrazolines derivatives” (Bioorg Med Chem Lett, 2010).
Active and inactive are the calls of the source. No cut-off for these calls is given here.

Columns and labels:
Rattus norvegicus [1] = assay: Antiinflammatory activity in Wistar rat assessed as reduction of carrageenan-induced increase in paw volume at 30 mg/kg, po after 3 hrs; type: functional
Rattus norvegicus [2] = assay: Toxicity in Wistar rat up to 1000 mg/kg, po; type: organism-based; parameters: dose 1000 mg/kg, route oral; details: in vivo
Rattus norvegicus [3] = assay: Antiinflammatory activity in Wistar rat assessed as reduction of carrageenan-induced increase in paw volume at 30 mg/kg, po after 24 hrs; type: functional
Rattus norvegicus [4] = assay: Antiinflammatory activity in Wistar rat assessed as reduction of carrageenan-induced increase in paw volume at 30 mg/kg, po after 2 hrs; type: functional
Mus musculus [5] = assay: Analgesic activity against acetic acid-induced writhing in Swiss albino mouse at 30 mg/kg, po; type: functional, organism-based; parameters: dose 30 mg/kg
Rattus norvegicus [6] = assay: Antiinflammatory activity in Wistar rat assessed as reduction of carrageenan-induced increase in paw volume at 30 mg/kg, po after 4 hrs; type: functional
Rattus norvegicus [7] = assay: Antiinflammatory activity in Wistar rat assessed as reduction of carrageenan-induced increase in paw volume at 1000 mg/kg, po; type: functional, organism-based; parameters: dose 1000 mg/kg
Mus musculus [8] = assay: Toxicity in Swiss albino mouse up to 1000 mg/kg, po; type: organism-based; parameters: dose 1000 mg/kg, route oral; details: in vivo

Row | SMILES | Activity (Rattus norvegicus [1]) | Activity (Rattus norvegicus [2]) | Activity (Rattus norvegicus [3]) | Activity (Rattus norvegicus [4]) | Activity (Mus musculus [5]) | Activity (Rattus norvegicus [6]) | Activity (Rattus norvegicus [7]) | Activity (Mus musculus [8])
1 | Oc1ccc(Br)cc1C1=NN(C(=S)Nc2ccccc2)C(c2ccc(N3CCOCC3)cc2)C1 (stereo unspecified) | 0.69 mL | Non-toxic | 0.92 mL | 0.87 mL | Active | 0.91 mL | Active | Non-toxic
2 | Cc1cc(C)c(O)c(C2=NN(C(=S)Nc3ccccc3)C(c3ccc(N4CCOCC4)cc3)C2)c1 (stereo unspecified) | 1.81 mL | Non-toxic | 1.73 mL | 1.41 mL |  | 1.63 mL | Active | Non-toxic
3 | Cc1ccc(O)c(C2=NNC(c3ccc(N4CCOCC4)cc3)C2)c1 (stereo unspecified) | 0.85 mL | Non-toxic | 0.79 mL | 0.87 mL | Active | 0.96 mL | Active | Non-toxic
4 | Cc1cc(O)c(C2=NN(C(=S)Nc3ccccc3)C(c3ccc(N4CCOCC4)cc3)C2)cc1Cl (stereo unspecified) | 1.53 mL | Non-toxic | 1.92 mL | 1.42 mL |  | 1.57 mL | Active | Non-toxic
5 | Cc1cc(O)c(C2=NNC(c3ccc(N4CCOCC4)cc3)C2)cc1Cl (stereo unspecified) | 1.62 mL | Non-toxic | 1.93 mL | 1.56 mL |  | 1.63 mL | Active | Non-toxic
6 | Oc1ccc(Br)cc1C1=NNC(c2ccc(N3CCOCC3)cc2)C1 (stereo unspecified) | 0.52 mL | Non-toxic | 0.98 mL | 0.86 mL | Active | 0.64 mL | Active | Non-toxic
7 | Oc1c(Cl)cc(Cl)cc1C1=NN(C(=S)Nc2ccccc2)C(c2ccc(N3CCOCC3)cc2)C1 (stereo unspecified) | 1.47 mL | Non-toxic | 1.92 mL | 1.49 mL |  | 1.52 mL | Active | Non-toxic
8 | Oc1ccc(Cl)cc1C1=NNC(c2ccc(N3CCOCC3)cc2)C1 (stereo unspecified) | 1.6 mL | Non-toxic | 1.92 mL | 1.52 mL |  | 1.61 mL | Active | Non-toxic
9 | Oc1c(Cl)cc(Cl)cc1C1=NNC(c2ccc(N3CCOCC3)cc2)C1 (stereo unspecified) | 1.46 mL | Non-toxic | 1.72 mL | 1.41 mL |  | 1.75 mL | Active | Non-toxic
10 | Oc1ccccc1C1=NNC(c2ccc(N3CCOCC3)cc2)C1 (stereo unspecified) | 0.59 mL | Non-toxic | 0.68 mL | 0.73 mL |  | 0.69 mL | Active | Non-toxic
11 | O=C([O-])Cc1ccccc1Nc1c(Cl)cccc1Cl.[Na+] [DICLOFENAC SODIUM] | 0.18 mL |  | 0.03 mL | 0.18 mL |  | 0.18 mL |  | 
12 | Cc1ccc(O)c(C2=NN(C(=S)Nc3ccccc3)C(c3ccc(N4CCOCC4)cc3)C2)c1 (stereo unspecified) | 1.6 mL | Non-toxic | 1.92 mL | 1.52 mL |  | 1.43 mL | Active | Non-toxic
13 | Cc1cc(C)c(O)c(C2=NNC(c3ccc(N4CCOCC4)cc3)C2)c1 (stereo unspecified) | 1.57 mL | Non-toxic | 1.92 mL | 1.38 mL |  | 1.53 mL | Active | Non-toxic
14 | Oc1ccc(Cl)cc1C1=NN(C(=S)Nc2ccccc2)C(c2ccc(N3CCOCC3)cc2)C1 (stereo unspecified) | 0.72 mL | Non-toxic | 0.86 mL | 0.64 mL | Active | 0.72 mL | Active | Non-toxic
15 | Oc1ccccc1C1=NN(C(=S)Nc2ccccc2)C(c2ccc(N3CCOCC3)cc2)C1 (stereo unspecified) | 0.62 mL | Non-toxic | 0.94 mL | 0.82 mL |  | 0.84 mL | Active | Non-toxic
